Assay results from patent publication US20220265629A1, “TREATMENT OF SYSTOLIC DYSFUNCTION AND HEART FAILURE WITH REDUCED EJECTION FRACTION WITH THE COMPOUND (R)-4-(1-((3-(DIFLUOROMETHYL)-1-METHYL-1H-PYRAZOL-4-YL)SULFONYL)-1-FLUOROETHYL)-N-(ISOXAZOL-3-YL)PIPERIDINE-1-CARBOXAMIDE” (MyoKardia, Inc., priority 2019, published 2022).
Where two headings read alike, the source gives them in different places.

Assay: Single ascending oral dose study in healthy volunteers: plasma pharmacokinetics
Type: in vivo, human
Conditions: human, plasma, oral; for concentration at 48 h: 48 Hours Postdose; for concentration at 72 h: 72 Hours Postdose; for concentration at 6 h: 6 Hours Postdose; for concentration at 12 h: 12 Hours Postdose; for concentration at 24 h: 24 Hours Postdose
Excerpt: This example describes the first-in-human study of Compound I. Based on its mechanism of action, Compound I may offer a targeted therapy for patients with DCM caused by genetic or nongenetic mechanisms. The study was a randomized, double-blind, placebo-controlled, sequential group, single-ascending (oral) close study in healthy subjects aged 18-55 years. Eight dosing cohorts, each comprising eight healthy subjects, were enrolled. Within each cohort, subjects were randomized 6:2 to Compound I:placebo.
Subjects were resident at the clinical site for up to 5 days and 4 nights, from Day −1 (the day before dosing) to Day 4, and received a single dose of Compound I or placebo on Day 1. ECG telemetry was initiated 1 hour preclose and continued through 48 hours postclose (Day 3). Any subject with a preclose resting HR≥80 beats per minute was considered ineligible and not treated. […] Subjects returned for a safety follow-up visit 7 days (±1 day) after dosing.
All randomized study subjects received either Compound I or matching placebo as a single oral dose after a fasting period of at least 6 hours. Compound I drug substance is a crystalline, free-base, synthetic molecule with a molecular weight of 435.4 g/mol.
Compound I was provided as a powder for oral suspension. Placebo was provided as calcium carbonate powder. Both treatments were closed orally as a suspension. The suspension was made using Ora-Plus® suspending vehicle (Perrigo) and a cherry syrup flavoring vehicle (Humco), mixed 50% to 50%. The suspension was followed by approximately 100 mL water. The suspension was made up within 14 days from the time in which it was closed which was consistent with the stability data on the suspension. The suspension was made up so the volume administered to the subjects who received Compound I was the same at 20 mL.
Each subject received a close according to the cohort in which they were enrolled. Cohorts were enrolled sequentially, with each cohort receiving an escalated dose of Compound I. The closes administered were 3 mg, 10 mg, 25 mg, 50 mg, 100 mg, 175 mg, 350 mg, and 525 mg, respectively.
The concentrations of Compound I in human plasma and urine were quantitated by high performance liquid chromatography with tandem mass spectrometric detection (LC MS/MS) (Biological sample analysis study report Alturas AD17-726). Plasma samples were extracted by protein precipitation with acetonitrile containing internal standard MYK-5654. The calibration curves were linear over concentration range of 0.500 to 1000 ng/mL with a lower limit of quantification (LLOQ) of 0.500 ng/mL.
The PK Population included all subjects who received Compound I. Blood samples were collected for PK assessments. The actual timing of the samples may have been modified and/or up to an additional 2 samples may have been requested by the SRC after review of the data from previous cohorts. It was important that PK sampling occurred as closely as possible to the scheduled time (±10%). Both blood and urine samples were used for PK assessments.
In addition, for subjects who received placebo, a single plasma sample near the predicted tmax of Compound I was evaluated to confirm the lack of circulating Compound I. Plasma concentration data for Compound I was summarized using descriptive statistics, including mean, standard deviation (SD), median, minimum, and maximum values, and percent coefficient of variation. Other PK parameters included (but were not limited to) Cmax, tmax, AUC, t1/2, and MRT. Additionally, the apparent terminal-phase terminal half-life was calculated. The close proportionality of AUC and Cmax was explored.

[1] = 10 mg, 10 mg, read-out: Plasma concentration, Median
[2] = 25 mg, 25 mg, read-out: Plasma concentration, Geometric Mean
[3] = 25 mg, 25 mg, read-out: Plasma concentration, Mean
[4] = 25 mg, 25 mg, read-out: Plasma concentration, Median

Cn1cc(S(=O)(=O)[C@@](C)(F)C2CCN(C(=O)Nc3ccon3)CC2)c(C(F)F)n1 [Compound I, (R)-4-(1-((3-(difluoromethyl)-1-methyl-1H-pyrazol-4-yl)sulfonyl)-1-fluoroethyl)-N-(isoxazol-3-yl)piperidine-1-carboxamide]
concentration at 48 h [1]: 15.4 ng/mL
concentration at 72 h (10 mg, 10 mg, read-out: Plasma concentration, Geometric Mean): 4.5 ng/mL
concentration at 72 h (10 mg, 10 mg, read-out: Plasma concentration, Mean): 4.93 ng/mL
concentration at 72 h [1]: 4.01 ng/mL
AUC(0-t) (10 mg, read-out: AUC0-24, Geometric Mean): 2120 ng·h/mL
AUC(0-t) (10 mg, read-out: AUC0-24, Mean): 2140 ng·h/mL
AUC(0-t) (10 mg, read-out: AUC0-24, Median): 2250 ng·h/mL
AUC(0-t) (10 mg, read-out: AUC0-48, Geometric Mean): 2980 ng·h/mL
AUC(0-t) (10 mg, read-out: AUC0-48, Mean): 3030 ng·h/mL
AUC(0-t) (10 mg, read-out: AUC0-48, Median): 3190 ng·h/mL
AUC(0-t) (10 mg, read-out: AUC0-last, Geometric Mean): 3280 ng·h/mL
AUC(0-t) (10 mg, read-out: AUC0-last, Mean): 3350 ng·h/mL
AUC(0-t) (10 mg, read-out: AUC0-last, Median): 3420 ng·h/mL
AUC(0-inf) (10 mg, read-out: AUC0-∞, Geometric Mean): 3350 ng·h/mL
AUC(0-inf) (10 mg, read-out: AUC0-∞, Mean): 3410 ng·h/mL
AUC(0-inf) (10 mg, read-out: AUC0-∞, Median): 3480 ng·h/mL
Cmax (10 mg, read-out: Cmax, Geometric Mean): 138 ng/mL
Cmax (10 mg, read-out: Cmax, Mean): 139 ng/mL
Cmax (10 mg, read-out: Cmax, Median): 146 ng/mL
half-life (10 mg, read-out: Half-Life Lambda Z, Geometric Mean (converted)): 13.2 h
half-life (10 mg, read-out: Half-Life Lambda Z, Mean (converted)): 13.4 h
half-life (10 mg, read-out: Half-Life Lambda Z, Median (converted)): 12.9 h
MRT (10 mg, read-out: Mean Residence Time, Geometric Mean): 21.1 h
MRT (10 mg, read-out: Mean Residence Time, Mean): 21.2 h
MRT (10 mg, read-out: Mean Residence Time, Median): 20.1 h
Tmax (10 mg, read-out: Tmax, Geometric Mean): 4.8 h
Tmax (10 mg, read-out: Tmax, Mean): 4.85 h
Tmax (10 mg, read-out: Tmax, Median): 5 h
Vd/F (10 mg, read-out: Vz/F, Geometric Mean): 57.1 L
Vd/F (10 mg, read-out: Vz/F, Mean): 58.5 L
Vd/F (10 mg, read-out: Vz/F, Median): 55.8 L
concentration at 6 h [2]: 281 ng/mL
concentration at 6 h [3]: 286 ng/mL
concentration at 6 h [4]: 286 ng/mL
concentration at 12 h [2]: 205 ng/mL
concentration at 12 h [3]: 211 ng/mL
concentration at 12 h [4]: 223 ng/mL
concentration at 24 h [2]: 114 ng/mL
concentration at 24 h [3]: 118 ng/mL
concentration at 24 h [4]: 124 ng/mL
concentration at 48 h [2]: 33.3 ng/mL
concentration at 48 h [3]: 35.8 ng/mL
concentration at 48 h [4]: 35.5 ng/mL
concentration at 72 h [2]: 8.4 ng/mL
concentration at 72 h [3]: 9.78 ng/mL
concentration at 72 h [4]: 8.51 ng/mL
AUC(0-t) (25 mg, read-out: AUC0-24, Geometric Mean): 4550 ng·h/mL
AUC(0-t) (25 mg, read-out: AUC0-24, Mean): 4650 ng·h/mL
AUC(0-t) (25 mg, read-out: AUC0-24, Median): 4850 ng·h/mL
AUC(0-t) (25 mg, read-out: AUC0-48, Geometric Mean): 6320 ng·h/mL
AUC(0-t) (25 mg, read-out: AUC0-48, Mean): 6500 ng·h/mL
AUC(0-t) (25 mg, read-out: AUC0-48, Median): 6890 ng·h/mL
AUC(0-t) (25 mg, read-out: AUC0-last, Geometric Mean): 6920 ng·h/mL
AUC(0-t) (25 mg, read-out: AUC0-last, Mean): 7160 ng·h/mL
AUC(0-t) (25 mg, read-out: AUC0-last, Median): 7420 ng·h/mL
AUC(0-inf) (25 mg, read-out: AUC0-∞, Geometric Mean): 7050 ng·h/mL
